Assay results published in US9796760B2, “Modified peptide, CB receptor ligand, kit in vitro process for evaluating CB receptor bonds, uses, pharmaceutical composition for modulating CB receptor activity” (Proteimax Biotecnologia Ltda, priority 2012, dated 2017).
Entries after “also recorded” stand apart in the source; their conditions may differ. No end group written: not given here.

Tests used:
CB2 receptor = assay: ELISA with striate membranes for CB2 receptor, receptor activating percentage vs non-treated membrane; type: biochemical; settings: striate membranes 5 μg/pool, 1 μM of each drug, 2 hours, ambient temperature
Method: (§1) The receptor activating percentage was calculated regarding the control, non-treated membrane (100%). […] Significant differences are indicated and p<0.05.

[1] = Activity on oral administration (statement, no separate method); type: in vivo, mammalian
CB1 receptor [2] = assay: ELISA with striate membranes and anti-CB1 antibody, receptor activating percentage vs non-treated membrane; type: biochemical; settings: 2 hours; for activity regarding the CB1 (receptor activating percentage regarding control): striate membranes 5 μg/pool, 1 μM of each drug, ambient temperature, variants compared with SeqID:1
Method: as §1

[3] = Depression model (forced swim); type: in vivo; settings: rats
Method: The forced swim test was performed based on the previous tests ([Harkin et al., 2004], [Petit-Demouliere et al., 2005] and [Treit and Menard, 1998]).

[4] = Test in retroperitoneal adipose tissue, 3 days oral treatment; type: in vivo, Thin wistar rats; settings: 100 ug/Kg, 3 days orally, vs Rimonabant and/or saline groups
Method: (§2) Furthermore, in a treatment acute model (3 days of treatment orally in non-obese wistar rats) it was verified the brown adipose tissue activation, the retroperitoneal, inguinal and brown adipose tissues reduction, as well the adiposity ratio (FIGS. 4 to 9), effects not observed with Rimonabant.
The measure of the adipose tissue was performed after finishing the treatment. The results are expressed by the retroperitoneal adipose tissue weight measured for treatment purpose (scale of g/100 g). Rats administered with vehicle (saline) were subject to the same protocol (control).

[5] = Test in inguinal adipose tissue, 3 days oral treatment; type: in vivo, Thin wistar rats; settings: 100 ug/Kg, 3 days orally, vs Rimonabant and/or saline groups
Method: as §2
The measure of the adipose tissue was performed after finishing the treatment. The results are expressed by the inguinal adipose tissue weight measured at the treatment end (scale of g/100 g). Rats administered with vehicle (saline) were subject to the same protocol (control).

[6] = Test in brown adipose tissue, 3 days oral treatment; type: in vivo, Thin wistar rats
Method: as §2
The measure of the adipose tissue was performed after finishing the treatment. The results are expressed by the brown adipose tissue weight measured at the treatment end (scale of g/100 g). Rats administered with vehicle (saline) were subject to the same protocol (control).

[7] = Adiposity ratio determination, 3 days oral treatment; type: in vivo, Thin wistar rats; settings: 100 ug/Kg, 3 days orally, vs Rimonabant and/or saline groups
Method: as §2
Thin wistar rats were treated with a Rimonabant dosage (100 ug/Kg) or peptide 19 (Pep 19 100 ug/Kg) during 3 days orally. The measure of the adiposity ratio was performed after finishing the treatment using the formula (%), (I=Σ fat deposits/body weight×100). The results are expressed by the animal weight measured at the treatment end (scale of g/100 g). Rats administered with vehicle (saline) were subject to the same protocol (control).

[8] = Glucose in animals supplemented with 20% sucrose, 30 days-treatment; type: in vivo, Winstar rats; settings: Rimonabant (positive control, dose not given), 15th and 30th days of treatment
Method: (§3) Winstar rats fed with standard regimen supplemented with 20% sucrose were used in the drinking water during 60 days before and during the 30 days-treatment with SALINE (negative control), Rimonabant (positive control), Peptide 19 (Pep 19) in the concentration of 50 μg/Kg and Peptide 19 (Pep 19) in the concentration of 100 μg/Kg.

[9] = Cholesterol in animals supplemented with 20% sucrose, 30 days-treatment; type: in vivo, Wistar rats; settings: Rimonabant (positive control, dose not given), after 30 days-treatment
Method: as §3, with “Wistar” for “Winstar”

[10] = prior art statement; cited from earlier work
[11] = Pain test: carrageenan-induced hyperalgesia, intraplantar administration; type: in vivo, Rats; settings: 20 g by leg, immediately before carrageenan 200 g by leg, 0 h and 3 h
Method: It was performed the comparative analysis of the peptide intraplantar administration over the carrageenan-induced hyperalgesia. Rats were treated with peptide ([…]) immediately before the carrageenan intraplantar administration ([…]) and were evaluated using a pressure apparatus […] (0 h and empty legs) and 3 h after administration of carrageenan (black legs).

CB1 receptor [12] = target: CB1 receptor (Homo sapiens, UniProt P21554); settings: disclosed in WO 2011/011847; cited from earlier work
CB1 receptor (Homo sapiens, UniProt P21554), sequence (P21554 whole entry): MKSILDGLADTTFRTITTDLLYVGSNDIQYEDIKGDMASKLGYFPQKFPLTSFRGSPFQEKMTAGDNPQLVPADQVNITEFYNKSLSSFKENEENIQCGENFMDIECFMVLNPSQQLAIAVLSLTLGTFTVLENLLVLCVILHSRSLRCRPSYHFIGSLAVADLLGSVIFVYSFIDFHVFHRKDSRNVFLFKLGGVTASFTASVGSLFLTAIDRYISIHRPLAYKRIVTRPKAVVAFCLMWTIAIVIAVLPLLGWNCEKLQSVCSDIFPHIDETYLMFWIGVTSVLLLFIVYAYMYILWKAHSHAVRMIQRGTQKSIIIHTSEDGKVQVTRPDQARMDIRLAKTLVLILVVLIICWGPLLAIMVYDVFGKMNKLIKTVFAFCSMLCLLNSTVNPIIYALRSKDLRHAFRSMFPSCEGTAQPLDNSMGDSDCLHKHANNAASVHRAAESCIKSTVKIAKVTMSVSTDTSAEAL

## DILADDEPLT [Modified peptide 2]
CB2 receptor; listed as SeqID:2
  activity in CB2 (receptor activating percentage regarding control): inverse agonist
[1]
  activity when administered orally: has activity even when administered orally

## third amino acid of the SeqID:1 (isoleucine amino acid) was replaced for threonine: sequence wherein the third amino acid of the SeqID:1 (isoleucine) was replaced for threonine (DITADDEPLT; Artificial peptide modulator of cannabinoid receptors)
CB1 receptor [2]
  activity regarding the CB1 (receptor activating percentage regarding control): biological activity loss; also recorded: have not demonstrated activity detectable
CB2 receptor
  activity in CB2 (receptor activating percentage regarding control): have not demonstrated activity detectable

## DIIADDEPLT [Modified peptide 1, Asp-Ile-Ile-Ala-Asp-Asp-Glu-Pro-Leu-Thr]
[3]
  depression in forced swim test (immobility time): does not cause depression

## Cc1c(C(=O)NN2CCCCC2)nn(-c2ccc(Cl)cc2Cl)c1-c1ccc(Cl)cc1 [Rimonabant]
[4]
  retroperitoneal adipose tissue mass: not observed
[5]
  inguinal adipose tissue mass: not observed
[6]; 100 ug/Kg, 3 days orally, vs Rimonabant and/or saline groups
  brown adipose tissue mass: not observed
[6]; 3 days of treatment orally in non-obese wistar rats
  brown adipose tissue activation: not observed
[7]
  adiposity ratio: not observed
[8]
  glycaemia: lower glycaemia
[9]
  cholesterol in % from SALINE animals: lower cholesterol percentages
[10]
  crossing the hematoencephalic barrier: crossing the hematoencenphalic layer

## DIIADDEALT [Modified peptide 5]
CB1 receptor [2]; different dosages of drug, high dosages, listed as SeqID:5
  activity in CB1 / endocannabinoid receptors in high dosages: agonist activity
CB1 receptor [2]; different dosages of drug, low dosages, listed as SeqID:5
  activity in CB1 / endocannabinoid receptors in low dosages: activity inverse agonist
[1]
  activity when administered orally: has activity even when orally administered

## CC(C)C[C@H](NC(=O)[C@H](Cc1ccccc1)NC(=O)[C@H](CCCCN)NC(=O)[C@H](Cc1ccccc1)NC(=O)[C@H](CC(N)=O)NC(=O)[C@@H](NC(=O)[C@@H]1CCCN1)C(C)C)C(=O)N[C@@H](CO)C(=O)N[C@@H](Cc1cnc[nH]1)C(=O)O [hemopressin]
[11]
  antihyperalgesic activity: antihyperalgesic activity
[10]
  crossing the hematoencephalic barrier: does not cross the hematoencephalic barrier
CB1 receptor [12]
  binding to the CB1 receptor: binding efficiently

## DIIADDAPLT [Modified peptide 3]
CB1 receptor [2]; listed as SeqID:3
  activity regarding the CB1 (receptor activating percentage regarding control): smaller activity
[1]
  activity when administered orally: has activity even when orally administered

## Cyclic Peptide -Asp-Ile-Ile-Ala-Asp-Asp-Glu-Pro-Leu-Thr- (DIIADDEPLT; cyclic; Artificial cyclic peptide modulator of cannabinoid receptors) [Modified peptide 6]
[1]
  activity when administered orally: has activity even when orally administered

## DIIADDE [Modified peptide 4]
CB1 receptor [2]; listed as SeqID:4
  activity regarding the CB1 (receptor activating percentage regarding control): improved inverse agonist activity
[1]
  activity when administered orally: has activity even when orally administered
